From PubChem BioAssay (NCI) come the findings set out here.

Among the test systems are HCT-15 colon; HOP-92 NSCLC; NCI-H522 lung; OVCAR-8 ovarian; RXF 393 renal; SF-295 CNS; SK-MEL-28 melanoma; SK-MEL-5 melanoma; SK-OV-3 ovarian; OVCAR-4 ovarian.
What all share (experiment): DTP human tumour cell line panel, 48 h

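The compound was tested at five concentrations on cells cultured in 96-well plates, with a 48-hour exposure period. TGI denotes the concentration required for complete inhibition of growth.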

For `NC(=O)c1nnsc1NC=O`, the TGI in the assay on HCT-15 colon, with HOP-92 NSCLC, with NCI-H522 lung, with OVCAR-8 ovarian, in the assay with RXF 393 renal and in the assay on SF-295 CNS was greater than 100 µM throughout. In addition, the TGI with SK-MEL-28 melanoma, in the assay on SK-MEL-5 melanoma and with SK-OV-3 ovarian was greater than 100 µM in each case.
Regarding `O=C1CCCC2=C1CC1=C(CCCC1=O)N2c1ccccc1`, the TGI in the assay on HCT-15 colon, with HOP-92 NSCLC, with OVCAR-4 ovarian, in the assay with OVCAR-8 ovarian, in the assay with RXF 393 renal and with SK-MEL-28 melanoma was greater than 100 µM throughout. Moreover, the TGI in the assay on SK-MEL-5 melanoma and in the assay with SK-OV-3 ovarian was greater than 100 µM throughout.
In the case of `c1ccc2c(c1)CC1COc3ccccc3C1O2` (configuration not stated), the TGI in the assay on HCT-15 colon was greater than 100 µM; in the assay on HOP-92 NSCLC it was greater than 100 µM; in the assay with NCI-H522 lung it was greater than 100 µM; with OVCAR-8 ovarian it was greater than 100 µM; with SF-295 CNS, greater than 100 µM; in the assay with SK-MEL-5 melanoma, 37.9 µM. The same compound had a TGI in the assay on SK-OV-3 ovarian greater than 100 µM.
On to `CC(=O)OCC1OC(O/C=C(\CN=[N+]=[N-])C(C)=O)C(OC(C)=O)C(OC(C)=O)C1OC(C)=O` (configuration not stated), for which the TGI in the assay on HCT-15 colon is 18.9 µM; with HOP-92 NSCLC, 56.6 µM; in the assay on NCI-H522 lung, 5.08 µM; in the assay on OVCAR-4 ovarian it was 43.1 µM; in the assay on OVCAR-8 ovarian, greater than 100 µM; in the assay with SF-295 CNS, greater than 100 µM. Besides, the TGI is 89.7 µM in the assay with SK-MEL-28 melanoma, 26.2 µM in the assay on SK-MEL-5 melanoma and greater than 100 µM with SK-OV-3 ovarian.
Turning to `CC(C)OC(=O)[C@@H](O)[C@H](CO)C1=CC([Si](C)(C)c2ccccc2)=CON1`, the TGI with HCT-15 colon, with OVCAR-4 ovarian, with OVCAR-8 ovarian, in the assay on RXF 393 renal, in the assay with SF-295 CNS and with SK-MEL-28 melanoma was greater than 100 µM each time. The TGI with SK-MEL-5 melanoma and in the assay with SK-OV-3 ovarian was greater than 100 µM throughout.
With `COc1ccccc1NC(=O)O/N=C(/Cl)C(C)C`, the concentration for total growth inhibition (TGI) in the assay on HCT-15 colon turned out to be 27 µM; in the assay with NCI-H522 lung it was 3.37 µM; in the assay with OVCAR-8 ovarian, 28.6 µM; in the assay on RXF 393 renal, 28.4 µM; in the assay with SF-295 CNS, 29.1 µM; with SK-MEL-28 melanoma, 27.8 µM. In addition, the TGI worked out at 24.1 µM in the assay with SK-MEL-5 melanoma and 32.7 µM in the assay on SK-OV-3 ovarian.
With `CC(=O)N1c2ccccc2C(C)C1c1[nH]c2ccccc2c1C` (configuration not stated), the TGI was greater than 100 µM in the assay with HCT-15 colon; 49.2 µM in the assay on NCI-H522 lung; greater than 100 µM with OVCAR-4 ovarian; 57.3 µM with OVCAR-8 ovarian; 28.4 µM in the assay on RXF 393 renal; 32 µM in the assay on SF-295 CNS. The TGI amounted to 49.3 µM in the assay on SK-MEL-28 melanoma, 28.3 µM in the assay on SK-MEL-5 melanoma and 43.9 µM with SK-OV-3 ovarian.
`c1ccc(-c2cc(-c3cccs3)c(-c3cccs3)o2)cc1`: the TGI with HCT-15 colon, in the assay with HOP-92 NSCLC, in the assay with OVCAR-4 ovarian, in the assay on OVCAR-8 ovarian, in the assay with RXF 393 renal and in the assay on SF-295 CNS was greater than 100 µM throughout. Besides, the TGI in the assay on SK-MEL-28 melanoma, in the assay with SK-MEL-5 melanoma and in the assay on SK-OV-3 ovarian was greater than 100 µM throughout.
In the case of `S=C(Nc1ccccn1)Nc1ccccc1Cl`, the TGI in the assay on HCT-15 colon is greater than 100 µM; in the assay with NCI-H522 lung, 37.9 µM; in the assay with OVCAR-4 ovarian it was greater than 100 µM; in the assay on OVCAR-8 ovarian, greater than 100 µM; in the assay with RXF 393 renal, greater than 100 µM; in the assay with SF-295 CNS, greater than 100 µM. Further, the TGI in the assay on SK-MEL-28 melanoma, in the assay with SK-MEL-5 melanoma and in the assay with SK-OV-3 ovarian was greater than 100 µM throughout.
`Clc1c(C(Cl)(Cl)Cl)nsc1N1CCCCC1`: the total growth inhibition concentration (TGI) in the assay on HCT-15 colon was 79.9 µM; in the assay on OVCAR-4 ovarian, greater than 100 µM; with OVCAR-8 ovarian it was 71 µM; in the assay with RXF 393 renal, 32.3 µM; in the assay with SF-295 CNS, 66.8 µM; in the assay with SK-MEL-28 melanoma, greater than 100 µM. Further, the concentration for total growth inhibition (TGI) with SK-MEL-5 melanoma was 29.6 µM; in the assay on SK-OV-3 ovarian, 78.9 µM.
Take `O=[N+]([O-])c1ccc2c(c1)c(S(=O)(=O)O)cc1nonc12`: the TGI in the assay on HCT-15 colon, in the assay on HOP-92 NSCLC, in the assay with NCI-H522 lung, in the assay with OVCAR-4 ovarian, with OVCAR-8 ovarian and in the assay with SF-295 CNS was greater than 100 µM in each case. Further, the concentration for total growth inhibition (TGI) with SK-MEL-28 melanoma, with SK-MEL-5 melanoma and in the assay on SK-OV-3 ovarian was greater than 100 µM in each case.
In the case of `c1ccc(C2=NCCc3cc4c(cc32)OCO4)cc1`, the TGI in the assay with NCI-H522 lung, in the assay on OVCAR-4 ovarian, with OVCAR-8 ovarian, in the assay with RXF 393 renal, in the assay with SF-295 CNS and with SK-MEL-28 melanoma was greater than 100 µM throughout. Besides, the TGI with SK-MEL-5 melanoma and in the assay with SK-OV-3 ovarian was greater than 100 µM each time.
As for `Cc1nc2ccccc2n1Cc1nnc(N)o1`, the TGI in the assay on HCT-15 colon, in the assay on HOP-92 NSCLC, in the assay on NCI-H522 lung, in the assay with OVCAR-8 ovarian, in the assay with RXF 393 renal and in the assay on SF-295 CNS was greater than 100 µM in each case. Further, the TGI with SK-MEL-28 melanoma, with SK-MEL-5 melanoma and in the assay on SK-OV-3 ovarian was greater than 100 µM each time.
As for `CC(NC(C#N)CC12CC3CC(CC(C3)C1)C2)c1ccccc1` (configuration not stated), the total growth inhibition concentration (TGI) in the assay on HCT-15 colon was greater than 100 µM; with HOP-92 NSCLC, 31.5 µM; with NCI-H522 lung, greater than 100 µM; in the assay on OVCAR-8 ovarian, greater than 100 µM; with SF-295 CNS it was greater than 100 µM; in the assay on SK-MEL-28 melanoma, greater than 100 µM. Also, the TGI in the assay on SK-MEL-5 melanoma and in the assay on SK-OV-3 ovarian was greater than 100 µM throughout.
Consider `C=CCN(c1cc(OC)c2[nH]cc(C)c2c1[N+](=O)[O-])S(C)(=O)=O`, for which the TGI with HCT-15 colon, in the assay on NCI-H522 lung, with OVCAR-4 ovarian, in the assay on OVCAR-8 ovarian, in the assay with RXF 393 renal and in the assay on SF-295 CNS was greater than 100 µM each time. Also, the TGI in the assay on SK-MEL-28 melanoma, with SK-MEL-5 melanoma and with SK-OV-3 ovarian was greater than 100 µM each time.
